Data from US20230128114A1, “METHODS AND COMPOSITIONS FOR TREATING OR PREVENTING AN INFLAMMATORY CONDITION” (priority 2020, published 2023).
Where two headings read alike, the source gives them in different places.

Tests used:
[1] = tested on: LPS-induced production of inflammatory cytokines; experiment: LPS-induced sepsis in mice: synergy analysis (relative inhibition of cytokine release, Excess over Bliss); format: in vivo, C57BL/6 mice
Experimental: Male C57BL/6 mice weighing 10-20 g were used. Vehicle and active agents (i.e., CBD and hydroxychloroquine) alone or in combination were administered intraperitoneally (IP) (Table 4) or orally (Table 5) at 1 hour before LPS (100 μg/100 μL/mouse) injected intravenously (IV). At 2 hours after LPS injection, blood was collected from all mice by cardiac puncture, sera processed and assayed for biomarkers using either the Th17-plex for IL-1β, IL-2, IL-10, IL-12 (p70), IFN-γ and TNF-α by Luminex, plus IL-6 and D-dimer by ELISA, or the 23-plex for IL-1α, IL-1β, IL-2, IL-3, IL-4, IL-5, IL-6, IL-9, IL-10, IL-12(p40), IL-12(p70), IL-13, IL-17A, Eotaxin, G-CSF, GM-CSF, IFN-γ, KC, MCP-1(MCAF), MIP-1α, MIP-1β, RANTES, and TNF-α by Luminex, plus IL-6 by ELISA. ANOVA followed by Dunnett's test was applied for comparison between vehicle and treatment groups. p<0.05 is considered significant.
(§1) For synergy analysis, data were baseline subtracted using the cytokine levels of sham treated mice (i.e., no LPS injection), before normalising the values for each cytokine relative to maximum values across the groups. The normalised values were used to calculate the relative inhibition where a value of 1 represents complete inhibition and a value of 0 represents no inhibition. Synergy was calculated using the statistical methods described elsewhere herein.
(§2) Drug synergy was determined using the Bliss Independence method where the predicted effect of the drug combination is calculated using the equation: […]

[2] = tested on: LPS-induced pulmonary inflammation; experiment: LPS-induced pulmonary inflammation: BALF cytokines, synergy analysis; format: in vivo, C57BL/B6 mice; details: HCQ 25 mg/kg, alone or combined, observed
Experimental: Male C57BL/B6 mice weighing 10-20 g were used. Vehicle and active agents (i.e., CBD and hydroxychloroquine) alone or in combination were administered intraperitoneally (IP) at 1 hour before LPS (˜80 mg/kg) was administered intratracheally. 24 hours after LPS injection, mice were anaesthetized with pentoparbital and 0.5 mL of PBS was administered twice through a tracheal cannula after which approximately 0.6 mL of broncheoalveolar lavage fluid (BALF) was obtained. The BALF was assayed for IL-1β, TNF-α, MCP-1(MCAF) and CXCL-1 by Luminex. ANOVA followed by Dunnett's test was applied for comparison between vehicle and treatment groups. p<0.05 was considered significant.
as §1, §2

[3] = tested on: human peripheral blood mononuclear cells (PBMCs) stimulated with bacterial lipopolysaccharide (LPS); experiment: Cytokine release from LPS-stimulated human PBMCs (checkerboard, Luminex), Bliss synergy; format: cell-based; details: PBMC
Experimental: The anti-inflammatory activity the combination of CBD and hydroxychloroquine was assessed by determining cytokine release from human peripheral blood mononuclear cells (PBMCs) stimulated with bacterial lipopolysaccharide (LPS) using a Luminex based assay. A 96-well microtitre plate-based checkerboard assay with seven concentrations (including the no drug control) of CBD and hydroxychloroquine were assessed in combination was used to determine the drug-drug interaction. Briefly, frozen PMBCs from two independent donors were thawed, diluted in culture medium, seeded into 96-well microtitre plates and incubated at 37° C., 5% CO2 for 1 hour prior to the addition of test compounds. After the addition of the test compounds the cells were returned to the incubator for 1 hour, after which LPS was added to the wells. Plates were incubated at 37° C., 5% CO2 for 24 hours. After 24 hours, cell culture supernatants were removed and analysed for cytokine levels using Luminex methodology according to manufacturers' instructions. All values had the vehicle background subtracted prior to further analysis. Three plates were set up in parallel using the PBMCs from the same donor. Inhibition of cytokine release was determined relative to the no treatment control (i.e., that was stimulated with LPS) and averaged across the three replicates. A cytotoxicity assay using AlmarBlue with the identical plate set up was performed in parallel.
as §2
Synergy values for each combination of drug concentrations were calculated using the Excess Over Bliss method (the difference between the observed and predicted inhibition) described by, e.g., Liu et al. (2018, Statistics in Biopharmaceutical Research, 10: 112-122, where a value greater than 0 is indicative of synergy and the higher the value the stronger the synergy.

[4] = CBD 10 mg/kg alone, 1 = complete inhibition
[5] = CBD 10 mg/kg, HCQ 100 mg/kg, alone or combined, observed

C=C(C)[C@@H]1CCC(C)=C[C@H]1c1c(O)cc(CCCCC)cc1O [CBD, cannabidiol]
Relative inhibition of IFN-γ release in vivo [1, 4]: 0.00
Relative inhibition of IL-6 release in vivo [1, 4]: 0.14
Relative inhibition of IL-12(p70) release in vivo [1, 4]: 0.00
Relative inhibition of TNF-α release in vivo [1, 4]: 0.00
IFN-γ, relative inhibition of cytokine release [1, 5]: 0.00
IL-1β, relative inhibition of cytokine release [1, 5]: 0.34
IL-6, relative inhibition of cytokine release [1, 5]: 0.14
IL-12(p70), relative inhibition of cytokine release [1, 5]: 0.00
TNF-α, relative inhibition of cytokine release [1, 5]: 0.00
Relative inhibition of IL-6 release in vivo ([1]; CBD 25 mg/kg alone): 0.03
IL-6, relative inhibition of cytokine release ([1]; CBD 25 mg/kg, HCQ 100 mg/kg, alone or combined, observed): 0.03
IL-1β, relative inhibition of cytokine release (BALF) ([2]; CBD 1 mg/kg): 0.03
MCP-1, relative inhibition of cytokine release (BALF) ([2]; CBD 1 mg/kg): 0.07
TNF-α, relative inhibition of cytokine release (BALF) ([2]; CBD 1 mg/kg): 0.23
CXCL-1, relative inhibition of cytokine release (BALF) ([2]; CBD 10 mg/kg): 0.14
inhibition at 5 µg/mL ([3]; Donor 1, CBD 5.00 μg/mL alone, read-out: FIE (fractional inhibitory effect), IL-1α release): 40%
inhibition at 5 µg/mL ([3]; Donor 1, CBD 5.00 μg/mL alone, read-out: FIE (fractional inhibitory effect), IL-1β release): 38%
inhibition at 5 µg/mL ([3]; Donor 1, CBD 5.00 μg/mL alone, read-out: FIE (fractional inhibitory effect), IL-6 release): 8%
inhibition at 5 µg/mL ([3]; Donor 1, CBD 5.00 μg/mL alone, read-out: FIE (fractional inhibitory effect), MIP-1α release): 12%
inhibition at 5 µg/mL ([3]; Donor 1, CBD 5.00 μg/mL alone, read-out: FIE (fractional inhibitory effect), TNF-α release): 5%
inhibition at 5 µg/mL ([3]; Donor 2, CBD 5.00 μg/mL alone, read-out: FIE (fractional inhibitory effect), IL-1α release): 28%
inhibition at 5 µg/mL ([3]; Donor 2, CBD 5.00 μg/mL alone, read-out: FIE (fractional inhibitory effect), IL-1β release): 13%
inhibition at 5 µg/mL ([3]; Donor 2, CBD 5.00 μg/mL alone, read-out: FIE (fractional inhibitory effect), IL-6 release): 9%
inhibition at 5 µg/mL ([3]; Donor 2, CBD 5.00 μg/mL alone, read-out: FIE (fractional inhibitory effect), MIP-1α release): 0%
inhibition at 5 µg/mL ([3]; Donor 2, CBD 5.00 μg/mL alone, read-out: FIE (fractional inhibitory effect), TNF-α release): 7%
